Test results taken from ChEMBL document CHEMBL1671662, “In vitro activities of telavancin and six comparator agents against anaerobic bacterial isolates” (2009).

How the values were obtained:
Format in all cases: functional
[1] = tested on: Enterocloster clostridioformis; test: Antibacterial activity against Clostridium clostridioforme by CLSI M11-A6 agar dilution method
Clostridium hathewayi = test: Antibacterial activity against Clostridium hathewayi by CLSI M11-A6 agar dilution method; conditions: Hungatella hathewayi
Clostridium perfringens = test: Antibacterial activity against Clostridium perfringens by CLSI M11-A6 agar dilution method
Thomasclavelia ramosa = test: Antibacterial activity against Clostridium ramosum by CLSI M11-A6 agar dilution method
Clostridium subterminale = test: Antibacterial activity against Clostridium subterminale by CLSI M11-A6 agar dilution method
Clostridium bartlettii = test: Antibacterial activity against Clostridium bartlettii by CLSI M11-A6 agar dilution method; conditions: Intestinibacter bartlettii
Clostridium beijerinckii = test: Antibacterial activity against Clostridium beijerinckii by CLSI M11-A6 agar dilution method
Flavonifractor plautii = test: Antibacterial activity against Clostridium orbiscindens by CLSI M11-A6 agar dilution method
[2] = tested on: Clostridium paraputrificum; test: Antibacterial activity against Clostridium paraputrificum by CLSI M11-A6 agar dilution method
Clostridium scindens = test: Antibacterial activity against Clostridium scindens by CLSI M11-A6 agar dilution method
Clostridium sporogenes = test: Antibacterial activity against Clostridium sporogenes by CLSI M11-A6 agar dilution method
Clostridium tertium = test: Antibacterial activity against Clostridium tertium by CLSI M11-A6 agar dilution method
Actinomyces naeslundii = test: Antibacterial activity against Actinomyces naeslundii by CLSI M11-A6 agar dilution method
[3] = tested on: Bifidobacterium adolescentis; test: Antibacterial activity against Bifidobacterium adolescentis by CLSI M11-A6 agar dilution method
Bifidobacterium longum = test: Antibacterial activity against Bifidobacterium longum by CLSI M11-A6 agar dilution method
[4] = tested on: Bifidobacterium pseudolongum; test: Antibacterial activity against Bifidobacterium pseudolongum by CLSI M11-A6 agar dilution method
Collinsella aerofaciens = test: Antibacterial activity against Colinsella aerofaciens by CLSI M11-A6 agar dilution method
[5] = tested on: Propionibacterium propionicum; test: Antibacterial activity against Propionibacterium propionicus by CLSI M11-A6 agar dilution method; conditions: Arachnia propionica
Ruminococcus gnavus = test: Antibacterial activity against Ruminococcus gnavus by CLSI M11-A6 agar dilution method; conditions: Mediterraneibacter gnavus
Ruminococcus albus = test: Antibacterial activity against Ruminococcus albus by CLSI M11-A6 agar dilution method; conditions: Hominimerdicola alba
Ruminococcus lactaris = test: Antibacterial activity against Ruminococcus lactaris by CLSI M11-A6 agar dilution method
Ruminococcus torques = test: Antibacterial activity against Ruminococcus torques by CLSI M11-A6 agar dilution method; conditions: Mediterraneibacter torques
Ruminococcus sp. = test: Antibacterial activity against Ruminococcus sp. by CLSI M11-A6 agar dilution method
Finegoldia magna = test: Antibacterial activity against Finegoldia magna by CLSI M11-A6 agar dilution method
[6] = tested on: Peptoniphilus asaccharolyticus; test: Antibacterial activity against Peptoniphilus asaccharolyticus by CLSI M11-A6 agar dilution method
Parvimonas micra = test: Antibacterial activity against Peptostreptococcus micros by CLSI M11-A6 agar dilution method
Streptococcus anginosus = test: Antibacterial activity against Streptococcus anginosus by CLSI M11-A6 agar dilution method
[7] = tested on: Streptococcus constellatus; test: Antibacterial activity against Streptococcus constellatus by CLSI M11-A6 agar dilution method
[8] = tested on: Streptococcus intermedius; test: Antibacterial activity against Streptococcus intermedius by CLSI M11-A6 agar dilution method
[9] = tested on: Parabacteroides distasonis; test: Antibacterial activity against Parabacteroides distasonis by CLSI M11-A6 agar dilution method
Parabacteroides merdae = test: Antibacterial activity against Parabacteroides merdae by CLSI M11-A6 agar dilution method
[10] = tested on: Bacteroides thetaiotaomicron; test: Antibacterial activity against Bacteroides thetaiotaomicron by CLSI M11-A6 agar dilution method
Phocaeicola vulgatus = test: Antibacterial activity against Bacteroides vulgatus by CLSI M11-A6 agar dilution method
Odoribacter splanchnicus = test: Antibacterial activity against Bacteroides splanchnicus by CLSI M11-A6 agar dilution method
Bilophila wadsworthia = test: Antibacterial activity against Bilophila wadsworthia by CLSI M11-A6 agar dilution method
Fusobacterium mortiferum = test: Antibacterial activity against Fusobacterium mortiferum by CLSI M11-A6 agar dilution method
Fusobacterium varium = test: Antibacterial activity against Fusobacterium varium by CLSI M11-A6 agar dilution method
Prevotella bivia = test: Antibacterial activity against Prevotella bivia by CLSI M11-A6 agar dilution method
Prevotella denticola = test: Antibacterial activity against Prevotella P denticola by CLSI M11-A6 agar dilution method
Prevotella disiens = test: Antibacterial activity against Prevotella P disiens by CLSI M11-A6 agar dilution method
Prevotella nigrescens = test: Antibacterial activity against Prevotella nigrescens by CLSI M11-A6 agar dilution method
Hoylesella oralis = test: Antibacterial activity against Prevotella oralis by CLSI M11-A6 agar dilution method
[11] = tested on: Sutterella wadsworthensis; test: Antibacterial activity against Sutterella wadsworthensis by CLSI M11-A6 agar dilution method

CC(=O)NC[C@H]1CN(c2ccc(N3CCOCC3)c(F)c2)C(=O)O1 [LINEZOLID]
1 µg/mL: MIC50 (Actinomyces naeslundii) | MIC50 [3] | MIC50 (Bifidobacterium longum) | MIC50 [4] | MIC50 (Collinsella aerofaciens) | MIC50 [5] | MIC50 (Ruminococcus sp.) | MIC50 (Finegoldia magna) | MIC50 [6] | MIC50 (Parvimonas micra) | MIC50 (Fusobacterium mortiferum) | MIC90 (Fusobacterium mortiferum) | MIC50 (Fusobacterium varium) | MIC90 (Fusobacterium varium)
4 µg/mL: MIC50 [1] | MIC90 [1] | MIC90 (Clostridium hathewayi) | MIC50 (Clostridium subterminale) | MIC90 (Clostridium subterminale) | MIC90 (Clostridium bartlettii) | MIC90 (Clostridium beijerinckii) | MIC90 (Flavonifractor plautii) | MIC90 [2] | MIC90 (Clostridium scindens) | MIC90 (Clostridium sporogenes) | MIC90 (Clostridium tertium) | MIC90 (Ruminococcus albus) | MIC90 (Ruminococcus lactaris) | MIC90 (Ruminococcus torques) | MIC90 (Streptococcus anginosus) | MIC90 [7] | MIC90 [8] | MIC50 [9] | MIC90 [9] | MIC50 (Parabacteroides merdae) | MIC90 (Parabacteroides merdae) | MIC50 [10] | MIC90 (Phocaeicola vulgatus) | MIC90 (Odoribacter splanchnicus) | MIC50 (Bilophila wadsworthia)
8 µg/mL: MIC50 (Thomasclavelia ramosa) | MIC90 (Thomasclavelia ramosa) | MIC90 (Actinomyces naeslundii) | MIC90 [3] | MIC90 (Bifidobacterium longum) | MIC90 [4] | MIC90 (Collinsella aerofaciens) | MIC90 [5] | MIC90 [10]
> 128 µg/mL: MIC [11] | MIC50 [11] | MIC90 [11]
2 µg/mL: MIC50 (Clostridium hathewayi) | MIC50 (Clostridium perfringens) | MIC90 (Clostridium perfringens) | MIC50 (Clostridium bartlettii) | MIC50 (Clostridium beijerinckii) | MIC50 (Flavonifractor plautii) | MIC50 [2] | MIC50 (Clostridium scindens) | MIC50 (Clostridium sporogenes) | MIC50 (Clostridium tertium) | MIC50 (Ruminococcus gnavus) | MIC90 (Ruminococcus gnavus) | MIC50 (Ruminococcus albus) | MIC50 (Ruminococcus lactaris) | MIC50 (Ruminococcus torques) | MIC90 (Ruminococcus sp.) | MIC90 (Finegoldia magna) | MIC90 [6] | MIC90 (Parvimonas micra) | MIC50 (Streptococcus anginosus) | MIC50 [7] | MIC50 [8] | MIC50 (Phocaeicola vulgatus) | MIC (Odoribacter splanchnicus) | MIC50 (Odoribacter splanchnicus) | MIC50 (Prevotella bivia) | MIC90 (Prevotella bivia) | MIC50 (Prevotella denticola) | MIC90 (Prevotella denticola) | MIC50 (Prevotella disiens) | MIC90 (Prevotella disiens) | MIC50 (Prevotella nigrescens) | MIC90 (Prevotella nigrescens) | MIC50 (Hoylesella oralis) | MIC90 (Hoylesella oralis)
16 µg/mL: MIC90 (Bilophila wadsworthia)
